Test results: patent US20190231748A1, “COMPOSITION FOR VAGINA AND ANTIMICROBIAL AGENT COMBINATION FOR USE IN PREPARING COMPOSITION FOR VAGINA” (Shenzhen Eulikan Biotechnology Co., Ltd., priority 2016, published 2019)

Legend:
Type in all cases: cell-based
[1] = system: three strains of Escherichia coli isolated from the vaginal secretion of patients with vaginitis; test: Growth in enrichment broth (turbidity after 24 hours), clinical strains; design: key to growth of Escherichia coli, Bacterial strain 1 / growth of Escherichia coli, Bacterial strain 2 / growth of Escherichia coli, Bacterial strain 3: +: means the growth of bacteria; −: means no growth of bacteria; details: enrichment broth, 37° C. for 24 hours, turbidity
Source text: (§1) a. Experimental strains, three strains of Escherichia coli and three strains of Staphylococcus aureus, which were all isolated from the vaginal secretion of patients with vaginitis.
(§2) b. Enrichment broth, which contained 1 percent of yeast extract powder, 9 percent of sucrose, 0.025 percent of manganese sulfate (MnSO4.4H2O), 0.058 percent of magnesium sulfate (MgSO4.7H2O), and 0.9 percent of lactic acid, the pH value of the broth was adjusted to 4.8, and the enrichment broth was sterilized for later use;
(§3) (2). Experimental groups: the requirements for aseptic operation technique were strictly followed to prepare the sterile test tubes:
(§4) a. sodium benzoate group: each test tube contained 5 milliliters of enrichment broth, and was added in 0.05 percent (weight/volume) sodium benzoate;
(§5) b. 2-phenylethanol group: each test tube contained 5 milliliters of enrichment broth, and was added in 0.05 percent (weight/volume) of 2-phenylethanol;
(§6) c. sodium propionate group: each test tube contained 5 milliliters of enrichment broth, and was added in 0.25 percent (weight/volume) of sodium propionate;
(§7) d. “a group of the combinations of sodium benzoate and sodium propionate”: each test tube contained 5 milliliters of enrichment broth, and was added in 0.05 percent (weight/volume) of sodium benzoate and 0.25 percent (weight/volume) of sodium propionate;
(§8) e. “a group of the combinations of sodium benzoate and 2-phenylethanol”: each test tube contained 5 milliliters of enrichment broth, and was added in 0.05 percent (weight/volume) of sodium benzoate and 0.05 percent (weight/volume) of 2-phenylethanol;
(§9) f. “a group of the combinations of sodium propionate and 2-phenylethanol”: each test tube contained 5 milliliters of enrichment broth, and was added in 0.25 percent (weight/volume) of sodium propionate and 0.05 percent (weight/volume) of 2-phenylethanol;
(§10) g. “a group of the combinations of sodium benzoate, sodium propionate and 2-phenylethanol”: each test tube contained 5 milliliters of enrichment broth, and was added in 0.05 percent (weight/volume) of sodium benzoate, 0.25 percent (weight/volume) of sodium propionate, and 0.05 percent (weight/volume) of 2-phenylethanol;
(§11) h. positive control: one tube that contained 5 milliliters of enrichment broth without adding in any of the 2-phenylethanol, sodium benzoate, and sodium propionate, but inoculated the suspension of Escherichia coli or Staphylococcus aureus.
(§12) i. negative control: one tube that contained 5 milliliters of enrichment broth without adding in any of the 2-phenylethanol, sodium benzoate, and sodium propionate, and not inoculated the suspension of Escherichia coli or Staphylococcus aureus.
(§13) The requirements for aseptic operation technique were strictly followed to prepare the bacterial suspensions. The colonies of Escherichia coli and Staphylococcus aureus were diluted with physiological saline respectively to prepare bacterial suspension. The turbidities of the Escherichia coli suspension and the Staphylococcus aureus suspension were adjusted to 0.5 MCF (about 10^8 CFU/ml) by a turbidimeter. 1 milliliter of the 0.5 MCF bacterial suspensions were added into 9 milliliters of the enrichment broth respectively, so each bacterial solution was diluted for ten times to contain 10^7 CFU/ml of bacterial organisms.
(§14) The requirements for aseptic operation technique were strictly followed to take 100 microliters of the prepared bacterial suspensions respectively, and to add the bacterial suspensions into the aforesaid test tubes from a to h as well as positive control tube. No bacterial suspension was added into the negative control tube i.
(§15) The above tubes were cultured in a biochemical incubator at 37° C. for 24 hours, then turbidity changes of the test tube solutions were observed and recorded.
(§16) Remark: “+” means the growth of bacteria; “−” means no growth of bacteria.

[2] = system: three strains of Staphylococcus aureus isolated from the vaginal secretion of patients with vaginitis; test: as above; design: key to growth of Staphylococcus aureus, Bacterial strain 1 / growth of Staphylococcus aureus, Bacterial strain 2 / growth of Staphylococcus aureus, Bacterial strain 3: +: means the growth of bacteria; −: means no growth of bacteria; details: enrichment broth, 37° C. for 24 hours, turbidity
Source text: as §1, §2, §3, §4, §5, §6, §7, §8, §9, §10, §11, §12, §13, §14, §15, §16

[3] = system: nine strains of Candida albicans; test: Growth of Candida in enrichment broth after 24 hours, clinical strains; design: key to growth of Candida albicans, strain 1 / growth of Candida albicans, strain 2 / growth of Candida albicans, strain 3 / growth of Candida albicans, strain 4 / growth of Candida albicans, strain 5 / growth of Candida albicans, strain 6 / growth of Candida albicans, strain 7 / growth of Candida albicans, strain 8 / growth of Candida albicans, strain 9: +: means the growth of organisms; −: means no growth of organisms; details: enrichment broth, 37° C. for 24 hours
Source text: as §2, with “broth:” for “broth,”, “4.5,” for “4.8,”
(2) Experimental groups: the requirements of aseptic operation technique were strictly followed so to prepare the sterile test tubes;
a. sodium benzoate group: each test tube contained 5 milliliters enrichment broth, and was added in 0.025 percent (weight/volume) of sodium benzoate;
b. 2-phenylethanol group: each test tube contained 5 milliliters enrichment broth, and was added in 0.050 percent (weight/volume) of 2-phenylethanol;
c. sodium propionate group: each test tube contained 5 milliliters enrichment broth, and was added in 0.125 percent (weight/volume) of sodium propionate;
d. “a group of the combinations of sodium benzoate and sodium propionate”: each test tube contained 5 milliliters enrichment broth, and was added in 0.025 percent (weight/volume) of sodium benzoate and 0.125 percent (weight/volume) of sodium propionate;
e. “a group of the combinations of sodium benzoate and 2-phenylethanol”: each test tube contained 5 milliliters enrichment broth, and was added in 0.025 percent (weight/volume) of sodium benzoate and 0.050 percent (weight/volume) of 2-phenylethanol;
f. “a group of the combinations of sodium propionate and 2-phenylethanol”: each test tube contained 5 milliliters enrichment broth, and was added in 0.125 percent (weight/volume) of sodium propionate and 0.050 percent (weight/volume) of 2-phenylethanol;
g. “a group of the combinations of sodium benzoate, sodium propionate and 2-phenylethanol”: each test tube contained 5 milliliters enrichment broth, and was added in 0.025 percent (weight/volume) of sodium benzoate, 0.125 percent (weight/volume) of sodium propionate and 0.050 percent (weight/volume) of 2-phenylethanol;
h. positive control: the control tube of enrichment broth without adding in 2-phenylethanol, sodium benzoate, and sodium propionate; but inoculated the suspension of Candida albicans;
i. negative control: the control tube of enrichment broth without adding in 2-phenylethanol, sodium benzoate, and sodium propionate; and without inoculating Candida albicans;
The requirements for aseptic operation technique were strictly followed to prepare the suspension of organism. The colonies of each strain of Candida albicans organism were diluted with physiological saline respectively. The turbidities of the suspensions of Candida albicans organism were adjusted to 0.5 MCF (about 10^8 CFU/ml) by a turbidimeter. 1 milliliter of the 0.5 MCF organism suspension was added into 9 milliliters of enrichment broth. Each suspension was diluted for ten times to contain 10^7 CFU/ml of organisms.
the requirements for aseptic technique were strictly followed to take 100 microliters of the prepared organism suspension respectively and to add the suspension into the test tubes from a to h as well as the positive control tube. No organism suspension was added into the negative control tube i.
The above tubes were cultured in a biochemical incubator at 37° C. for 24 hours. Then the growth of Candida in each tube was observed and recorded.
Remark: “+” means the growth of organisms; “−” means no growth of organisms.

Lactococcus lactis = test: Gram-stained smear of co-culture gel, Gram-positive cocci (G+c); details: for Smear G^+c: cultivated 32 hours
Source text: (§17) 2.1 Experimental strains: one Lactococcus lactis strain and one Lactobacillus jensenii strain, both were clinical isolates.
(§18) The pH value was adjusted to 5.0.
(§19) 2.4 Experimental procedure: the test gel tubes containing different concentrations of antimicrobial agents, as shown in Tables 1 to 6 were inoculated with 100 microliters of Lactobacillus lactis suspension and 100 microliters of Lactobacillus jensenii suspension at the same time. The turbidities of both suspensions were 0.5 MCF. Then the tubes were cultivated at 37° C. and under 5 percent CO2 for 32 hours. Then the changes of the pH values of gels were tested. The gels were smeared, Gram stained, and microscopically examined for the morphology and quantity of bacteria.

[4] = system: Lactococcus lactis and Lactobacillus jensenii; test: pH of test gel after co-culture of Lactococcus lactis and Lactobacillus jensenii; details: cultivated 32 hours
Source text: as §17, §18, §19

Lactobacillus jensenii = test: Gram-stained smear of co-culture gel, Gram-positive rods (G+b); details: for Smear G^+b: cultivated 32 hours
Source text: as §17, §18, §19

O=C([O-])c1ccccc1.[Na+] [a. 0.05% sodium benzoate]
+: growth of Escherichia coli, Bacterial strain 1 ([1]; strain 1) | growth of Escherichia coli, Bacterial strain 2 ([1]; strain 2) | growth of Escherichia coli, Bacterial strain 3 ([1]; strain 3) | growth of Staphylococcus aureus, Bacterial strain 1 ([2]; strain 1) | growth of Staphylococcus aureus, Bacterial strain 2 ([2]; strain 2) | growth of Staphylococcus aureus, Bacterial strain 3 ([2]; strain 3)

O=C([O-])c1ccccc1.[Na+] [d. 0.025% sodium benzoate]
+: growth of Candida albicans, strain 1 [3] | growth of Candida albicans, strain 2 [3] | growth of Candida albicans, strain 3 [3] | growth of Candida albicans, strain 4 [3] | growth of Candida albicans, strain 5 [3] | growth of Candida albicans, strain 6 [3] | growth of Candida albicans, strain 7 [3] | growth of Candida albicans, strain 8 [3] | growth of Candida albicans, strain 9 [3]

OCCc1ccccc1 [e. 0.050% 2-phenylethanol]
+: growth of Candida albicans, strain 2 [3] | growth of Candida albicans, strain 3 [3] | growth of Candida albicans, strain 4 [3] | growth of Candida albicans, strain 5 [3] | growth of Candida albicans, strain 6 [3] | growth of Candida albicans, strain 8 [3] | growth of Candida albicans, strain 9 [3]
−: growth of Candida albicans, strain 1 [3] | growth of Candida albicans, strain 7 [3]

CCC(=O)[O-].[Na+] [f. 0.125% sodium propionate]
−: growth of Candida albicans, strain 3 [3] | growth of Candida albicans, strain 7 [3] | growth of Candida albicans, strain 9 [3]
+: growth of Candida albicans, strain 1 [3] | growth of Candida albicans, strain 2 [3] | growth of Candida albicans, strain 4 [3] | growth of Candida albicans, strain 5 [3] | growth of Candida albicans, strain 6 [3] | growth of Candida albicans, strain 8 [3]

CC(=O)[O-].[Na+] [sodium acetate]
3.8: pH value ([4]; 0.6 % in test gel) | pH value ([4]; 0.7 % in test gel)
little inhibition effect: inhibition effect on the growth of Lactococcus lactis (Lactococcus lactis; 0.1 to 0.8 percent)
G^+c++: Smear G^+c (Lactococcus lactis; 0.1 % in test gel) | Smear G^+c (Lactococcus lactis; 0.2 % in test gel) | Smear G^+c (Lactococcus lactis; 0.3 % in test gel) | Smear G^+c (Lactococcus lactis; 0.4 % in test gel) | Smear G^+c (Lactococcus lactis; 0.5 % in test gel) | Smear G^+c (Lactococcus lactis; 0.6 % in test gel) | Smear G^+c (Lactococcus lactis; 0.7 % in test gel) | Smear G^+c (Lactococcus lactis; 0.8 % in test gel)
<3.8: pH value ([4]; 0.1 % in test gel) | pH value ([4]; 0.2 % in test gel) | pH value ([4]; 0.3 % in test gel) | pH value ([4]; 0.4 % in test gel) | pH value ([4]; 0.5 % in test gel)
3.8-4.1: pH value ([4]; 0.8 % in test gel)
G^+b+: Smear G^+b (Lactobacillus jensenii; 0.1 % in test gel) | Smear G^+b (Lactobacillus jensenii; 0.2 % in test gel) | Smear G^+b (Lactobacillus jensenii; 0.3 % in test gel) | Smear G^+b (Lactobacillus jensenii; 0.4 % in test gel) | Smear G^+b (Lactobacillus jensenii; 0.5 % in test gel) | Smear G^+b (Lactobacillus jensenii; 0.6 % in test gel) | Smear G^+b (Lactobacillus jensenii; 0.7 % in test gel) | Smear G^+b (Lactobacillus jensenii; 0.8 % in test gel)

CC(=O)c1c([O-])cc(C)oc1=O.[Na+] [sodium dehydroacetate]
3.8: pH value ([4]; 0.005 % in test gel) | pH value ([4]; 0.010 % in test gel) | pH value ([4]; 0.015 % in test gel) | pH value ([4]; 0.020 % in test gel) | pH value ([4]; 0.025 % in test gel) | pH value ([4]; 0.030 % in test gel) | pH value ([4]; 0.035 % in test gel)
little inhibition effect: inhibition effect on the growth of Lactococcus lactis (Lactococcus lactis; 0.005 to 0.035 percent)
G^+b+: Smear G^+b (Lactobacillus jensenii; 0.005 % in test gel) | Smear G^+b (Lactobacillus jensenii; 0.010 % in test gel) | Smear G^+b (Lactobacillus jensenii; 0.015 % in test gel) | Smear G^+b (Lactobacillus jensenii; 0.020 % in test gel) | Smear G^+b (Lactobacillus jensenii; 0.025 % in test gel) | Smear G^+b (Lactobacillus jensenii; 0.030 % in test gel) | Smear G^+b (Lactobacillus jensenii; 0.035 % in test gel)
G^+c++: Smear G^+c (Lactococcus lactis; 0.005 % in test gel) | Smear G^+c (Lactococcus lactis; 0.010 % in test gel) | Smear G^+c (Lactococcus lactis; 0.015 % in test gel) | Smear G^+c (Lactococcus lactis; 0.020 % in test gel) | Smear G^+c (Lactococcus lactis; 0.025 % in test gel) | Smear G^+c (Lactococcus lactis; 0.030 % in test gel) | Smear G^+c (Lactococcus lactis; 0.035 % in test gel)

CCCCCCCC(=O)[O-].[Na+] [sodium octanoate]
stronger inhibiting effect: inhibiting effect on Lactococcus lactis (Lactococcus lactis; 0.05 percent) | inhibiting effect on lactobacillus (Lactobacillus jensenii; 0.05 percent)
<3.8: pH value ([4]; 0.010 % in test gel) | pH value ([4]; 0.015 % in test gel)
3.8: pH value ([4]; 0.020 % in test gel)
little inhibition effect: inhibition effect on the growth of Lactococcus lactis (Lactococcus lactis; 0.010 to 0.020 percent)
4.8: pH value ([4]; 0.05 % in test gel)
G^+b+: Smear G^+b (Lactobacillus jensenii; 0.010 % in test gel) | Smear G^+b (Lactobacillus jensenii; 0.015 % in test gel) | Smear G^+b (Lactobacillus jensenii; 0.020 % in test gel)
G^+c++++: Smear G^+c (Lactococcus lactis; 0.010 % in test gel) | Smear G^+c (Lactococcus lactis; 0.015 % in test gel) | Smear G^+c (Lactococcus lactis; 0.020 % in test gel)
